The target of the test is T1, human PAR4 (Homo sapiens, UniProt Q96RI0).
T1 construct: expressed in transfected cells; host or cells: HEK293 PAR4 Clone 1.2A (BMS Arctic ID 383940)
T1 sequence (Q96RI0 18-385): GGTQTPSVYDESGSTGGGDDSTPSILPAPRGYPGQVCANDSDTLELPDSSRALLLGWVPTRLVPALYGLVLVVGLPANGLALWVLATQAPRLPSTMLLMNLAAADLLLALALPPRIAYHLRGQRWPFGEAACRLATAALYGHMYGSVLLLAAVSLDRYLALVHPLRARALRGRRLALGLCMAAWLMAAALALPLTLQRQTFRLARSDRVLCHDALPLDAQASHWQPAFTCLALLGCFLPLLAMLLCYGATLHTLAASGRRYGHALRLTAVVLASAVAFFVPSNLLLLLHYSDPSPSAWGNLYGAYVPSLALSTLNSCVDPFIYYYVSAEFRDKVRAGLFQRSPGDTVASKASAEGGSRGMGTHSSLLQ
Nature of the test: PAR4 FLIPR assay: antagonism of agonist-peptide-induced calcium mobilization in PAR4-expressing HEK293 cells. The settings on record: H-Ala-Phe(4-F)-[…]NH2-induced intracellular calcium mobilization, 11-point curves. It counts as cell-based.
Take `COCc1cnc2c(-c3nc4c(C)cc(OCCNS(=O)(=O)c5ccc(F)cc5)cc4s3)cccc2n1` [Example 213, 4-fluoro-N-(2-((2-(2-(methoxymethyl)quinoxalin-5-yl)-4-methylbenzo[d]thiazol-6-yl)oxy)ethyl) benzenesulfonamide]: the IC50 is 5.8 nM.
`COc1cnc2c(-c3nc4c(F)c(F)c(OC)cc4s3)cc(Cl)cc2n1` [Example 214, 2-(7-chloro-2-methoxyquinoxalin-5-yl)-4,5-difluoro-6-methoxybenzo[d]thiazole]: the IC50 came to 4.3 nM.
Turning to `COc1cnc2c(-c3nc4c(Cl)c(F)c(OC)cc4s3)cc(Cl)cc2n1` [Example 215, 4-chloro-2-(7-chloro-2-methoxyquinoxalin-5-yl)-5-fluoro-6-methoxybenzo[d]thiazole], the IC50 was 2.9 nM.
`COc1cnc2c(-c3nc4c(Cl)c(F)c(OC)cc4s3)c(C)c(C)cc2n1` [Example 216, 4-chloro-5-fluoro-6-methoxy-2-(2-methoxy-6,7-dimethylquinoxalin-5-yl)benzo[d] thiazole]: the half-maximal inhibitory concentration (IC50) is 160 nM.
For the compound `COc1cnc2c(-c3nc4c(F)c(F)c(OC)cc4s3)cc(C#N)cc2n1` [Example 217, 8-(4,5-difluoro-6-methoxybenzo[d]thiazol-2-yl)-3-methoxyquinoxaline-6-carbonitrile], the IC50 was found to be 18 nM.
With `COc1cnc2c(-c3nc4c(Cl)c(F)c(OC)cc4s3)cc(CO)cc2n1` [Example 218, (8-(4-chloro-5-fluoro-6-methoxybenzo[d]thiazol-2-yl)-3-methoxyquinoxalin-6-yl)methanol], the IC50 turned out to be 2.5 nM.
The value for `COc1cnc2c(-c3nc4c(C)c(C)c(OC)cc4s3)cc(CO)cc2n1` [Example 219, (3-methoxy-8-(6-methoxy-4,5-dimethylbenzo [d]thiazol-2-yl)quinoxalin-6-yl)methanol] was 5.5 nM; that for `COc1cnc2c(-c3nc4c(F)c(F)c(OC)cc4s3)cc(CO)cc2n1` [Example 220, (8-(4,5-difluoro-6-methoxybenzo[d]thiazol-2-yl)-3-methoxyquinoxalin-6-yl)methanol] was 2.6 nM; that for `COc1cnc2c(-c3nc4cc(F)c(OC)cc4s3)cc(C#N)cc2n1` [Example 221, 8-(5-fluoro-6-methoxybenzo[d]thiazol-2-yl)-3-methoxyquinoxaline-6-carbonitrile] was 21 nM.
The value for `COc1cnc2c(-c3nc4cc(F)c(OC)cc4s3)cc(CO)cc2n1` [Example 222, (8-(5-fluoro-6-methoxybenzo [d]thiazol-2-yl)-3-methoxyquinoxalin-6-yl)methanol] was 1 nM; that for `COc1cnc2c(-c3nc4c(C)cc(OC)nc4s3)cc(CO)cc2n1` [Example 223, (3-methoxy-8-(5-methoxy-7-methylthiazolo[5,4-b]pyridin-2-yl)quinoxalin-6-yl)methanol] was 10 nM.
With `COc1cnc2c(-c3nc4c(Cl)c(F)c(OC)cc4s3)cc(CO)c(F)c2n1` [Example 224, (8-(4-chloro-5-fluoro-6-methoxybenzo[d]thiazol-2-yl)-5-fluoro-3-methoxyquinoxalin-6-yl)methanol], the IC50 amounted to 15 nM.
As to `COCc1cnc2c(-c3nc4c(C)cc(OCCNS(=O)(=O)c5ccc(F)cc5)cc4s3)cc(C(N)=O)cc2n1` [Example 225, 8-(6-(2-(4-fluorophenylsulfonamido)ethoxy)-4-methylbenzo[d]thiazol-2-yl)-3-(methoxymethyl)quinoxaline-6-carboxamide], the IC50 was 54 nM.
Consider `COCc1cnc2c(-c3nc4c(C)cc(OCCNS(=O)(=O)c5ccc(F)cc5)cc4s3)cc(C(=O)N3CCCCC3)cc2n1` [Example 227, 4-fluoro-N-(2-((2-(2-(methoxymethyl)-7-(piperidine-1-carbonyl)quinoxalin-5-yl)-4-methylbenzo[d]thiazol-6-yl)oxy)ethyl)benzenesulfonamide], for which the IC50 was 160 nM.

The values above are taken from US12060347B2 (BRISTOL-MYERS SQUIBB COMPANY, priority 2016, dated 2024).
